# Target: T1, KRAS^G12C::SOS1 (Homo sapiens, UniProt Q07889)
# T1 sequence (Q07889 1-1333): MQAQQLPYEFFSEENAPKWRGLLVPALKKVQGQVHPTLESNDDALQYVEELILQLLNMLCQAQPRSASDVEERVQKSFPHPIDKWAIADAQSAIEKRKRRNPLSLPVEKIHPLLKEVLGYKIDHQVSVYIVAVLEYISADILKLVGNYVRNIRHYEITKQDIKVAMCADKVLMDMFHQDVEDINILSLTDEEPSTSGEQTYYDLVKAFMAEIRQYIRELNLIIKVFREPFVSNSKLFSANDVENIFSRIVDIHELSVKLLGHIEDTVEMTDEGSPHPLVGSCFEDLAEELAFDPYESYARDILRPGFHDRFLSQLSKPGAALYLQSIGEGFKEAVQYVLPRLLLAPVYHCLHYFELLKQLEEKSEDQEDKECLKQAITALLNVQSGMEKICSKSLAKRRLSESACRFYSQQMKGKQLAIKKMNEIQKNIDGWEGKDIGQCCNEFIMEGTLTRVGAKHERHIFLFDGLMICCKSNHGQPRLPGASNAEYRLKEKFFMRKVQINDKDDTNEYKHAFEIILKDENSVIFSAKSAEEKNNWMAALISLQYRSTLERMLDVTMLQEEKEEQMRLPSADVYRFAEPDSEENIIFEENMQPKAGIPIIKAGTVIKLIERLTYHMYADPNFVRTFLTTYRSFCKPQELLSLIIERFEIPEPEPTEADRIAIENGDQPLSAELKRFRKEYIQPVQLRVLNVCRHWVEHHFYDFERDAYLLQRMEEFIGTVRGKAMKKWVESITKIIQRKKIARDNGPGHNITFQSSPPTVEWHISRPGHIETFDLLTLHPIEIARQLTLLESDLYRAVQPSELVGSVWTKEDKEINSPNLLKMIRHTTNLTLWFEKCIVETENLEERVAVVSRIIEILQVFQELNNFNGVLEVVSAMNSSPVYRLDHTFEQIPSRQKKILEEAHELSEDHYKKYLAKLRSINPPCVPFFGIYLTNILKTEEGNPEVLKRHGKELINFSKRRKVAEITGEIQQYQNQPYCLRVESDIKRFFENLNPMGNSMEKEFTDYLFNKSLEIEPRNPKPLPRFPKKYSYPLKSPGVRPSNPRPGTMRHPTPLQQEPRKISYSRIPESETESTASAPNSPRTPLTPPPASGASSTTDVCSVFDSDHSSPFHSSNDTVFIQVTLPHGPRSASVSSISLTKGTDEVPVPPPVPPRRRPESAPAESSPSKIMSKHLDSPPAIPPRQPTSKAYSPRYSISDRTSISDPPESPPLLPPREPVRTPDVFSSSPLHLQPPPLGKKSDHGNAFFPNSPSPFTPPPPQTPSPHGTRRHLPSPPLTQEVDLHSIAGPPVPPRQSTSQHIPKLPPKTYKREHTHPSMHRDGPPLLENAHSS
# Experiment: KRAS G12C::SOS1 protein-protein interaction (PPI) inhibition assay (HTRF binding kit)
row,Compound,IC50
1,"CNCc1sccc1-c1cccc([C@@H](C)NC(=O)c2ccc(=O)n(-c3ccccc3F)n2)c1 [Example 291, 1-(2-fluorophenyl)-N-[(1R)-1-[3-[2-(methylaminomethyl)-3-thienyl]phenyl]ethyl]-6-oxo-pyridazine-3-carboxamide]",< 1000 nM
2,"Cc1ncnn1-c1cccc(-n2nc(C(=O)N[C@H](C)c3cc(N)cc(C(F)(F)F)c3)ccc2=O)c1 [Example 211, N-[(1R)-1-[3-amino-5-(trifluoromethyl)phenyl]ethyl]-1-[3-(5-methyl-1,2,4-triazol-1-yl)phenyl]-6-oxo-pyridazine-3-carboxamide]",< 1000 nM
3,"CNCc1ccccc1-c1ccc([C@@H](C)NC(=O)c2ccc(=O)n(-c3cnn(C)c3)n2)s1 [Example 278, N-[(1R)-1-[5-[2-(methylaminomethyl)phenyl]-2-thienyl]ethyl]-1-(1-methylpyrazol-4-yl)-6-oxo-pyridazine-3-carboxamide]",< 1000 nM
4,"C[C@@H](NC(=O)c1ccc(=O)n(-c2cccc(-c3ccn(C)n3)c2)n1)c1cccc(C(F)(F)CO)c1F [Example 330, N-[(1R)-1-[3-(1,1-difluoro-2-hydroxy-ethyl)-2-fluoro-phenyl]ethyl]-1-[3-(1-methylpyrazol-3-yl)phenyl]-6-oxo-pyridazine-3-carboxamide]",< 1000 nM
5,"CNC(=O)c1cccc(-n2nc(C(=O)N[C@H](C)c3cc(N)cc(C(F)(F)F)c3)ccc2=O)c1 [Example 253, N-[(1R)-1-[3-amino-5-(trifluoromethyl)phenyl]ethyl]-1-[3-(methylcarbamoyl)phenyl]-6-oxo-pyridazine-3-carboxamide]",< 1000 nM
6,"CNc1cc(=O)n(-c2ccccc2F)nc1C(=O)N[C@H](C)c1cc(N)cc(C(F)(F)F)c1 [Example 383, N-[(1R)-1-[3-amino-5-(trifluoromethyl)phenyl]ethyl]-1-(2-fluorophenyl)-4-(methylamino)-6-oxo-pyridazine-3-carboxamide]",< 1000 nM
7,"C[C@@H](NC(=O)c1ccc(=O)n(-c2cccc(-c3ccn(C)n3)c2)n1)c1cc(N)cc(C(F)(F)F)c1 [Example 331, N-[(1R)-1-[3-amino-5-(trifluoromethyl)phenyl]ethyl]-1-[3-(1-methylpyrazol-3-yl)phenyl]-6-oxo-pyridazine-3-carboxamide]",< 1000 nM
8,CNCc1ccc(Cl)cc1-c1ccc([C@@H](C)NC(=O)c2ccc(=O)n(-c3cnn(CCOC)c3)n2)s1 [Example 406],< 1000 nM
9,"C[C@@H](NC(=O)c1ccc(=O)n(-c2cccc(CO)c2)n1)c1cc(N)cc(C(F)(F)F)c1 [Example 169, N-[(1R)-1-[3-amino-5-(trifluoromethyl)phenyl]ethyl]-1-[3-(hydroxymethyl)phenyl]-6-oxo-pyridazine-3-carboxamide]",< 1000 nM
10,"C[C@@H](NC(=O)c1ccc(=O)n(-c2cccc(C(=O)N3CCCC3)c2)n1)c1cccc(C(F)(F)CO)c1F [Example 194, N-[(1R)-1-[3-(1,1-difluoro-2-hydroxy-ethyl)-2-fluoro-phenyl]ethyl]-6-oxo-1-[3-(pyrrolidine-1-carbonyl)phenyl]pyridazine-3-carboxamide]",< 1000 nM
11,"C[C@@H](NC(=O)c1ccc(=O)n(-c2ccccc2F)n1)c1cccc(C(F)(F)CN)c1F [Example 243, N-[(1R)-1-[3-(2-amino-1,1-difluoro-ethyl)-2-fluoro-phenyl]ethyl]-1-(2-fluorophenyl)-6-oxo-pyridazine-3-carboxamide]",< 1000 nM
12,"C[C@@H](NC(=O)c1nn(-c2ccccc2F)c(=O)c2ccsc12)c1cccc(C(F)(F)CO)c1F [Example 310, N-[(1R)-1-[3-(1,1-difluoro-2-hydroxy-ethyl)-2-fluoro-phenyl]ethyl]-5-(2-fluorophenyl)-4-oxo-thieno[2,3-d]pyridazine-7-carboxamide]",< 1000 nM
13,"CCOc1ccc(-n2nc(C(=O)N[C@H](C)c3cc(N)cc(C(F)(F)F)c3)ccc2=O)cc1 [Example 189, (R)-N-(1-(3-amino-5-(trifluoromethyl)phenyl)ethyl)-1-(4-ethoxyphenyl)-6-oxo-1,6-dihydropyridazine-3-carboxamide]",< 1000 nM
14,"C[C@@H](NC(=O)c1ccc(=O)n(-c2cnn(C)c2)c1)c1cc(N)cc(C(F)(F)F)c1 [Example 165, N-[(1R)-1-[3-amino-5-(trifluoromethyl)phenyl]ethyl]-1-(1-methylpyrazol-4-yl)-6-oxo-pyridine-3-carboxamide]",< 1000 nM
15,"C[C@@H](NC(=O)c1ccc(=O)n(-c2cccc(-c3cnnn3C)c2F)n1)c1cccc(C(F)(F)CO)c1F [Example 358, N-[(1R)-1-[3-(1,1-difluoro-2-hydroxy-ethyl)-2-fluoro-phenyl]ethyl]-1-[2-fluoro-3-(3-methyltriazol-4-yl)phenyl]-6-oxo-pyridazine-3-carboxamide]",< 1000 nM
16,"CNCc1ccc(Cl)cc1-c1ccc([C@@H](C)NC(=O)c2ccc(=O)n(-c3cnn(C)c3)n2)s1 [Example 292, (R)-N-(1-(5-(5-chloro-2-((methylamino)methyl)phenyl)thiophen-2-yl)ethyl)-1-(1-methyl-1H-pyrazol-4-yl)-6-oxo-1,6-dihydropyridazine-3-carboxamide]",< 1000 nM
17,"CNCc1cc(Cl)c(F)cc1-c1ccc([C@@H](C)NC(=O)c2ccc(=O)n(-c3cccnc3F)n2)s1 [Example 400, N-[(1R)-1-(5-{4-chloro-5-fluoro-2-[(methylamino)methyl]phenyl}thiophen-2-yl)ethyl]-1-(2-fluoropyridin-3-yl)-6-oxo-1,6-dihydropyridazine-3-carboxamide]",< 1000 nM
18,"CNCc1cc(Cl)ccc1-c1ccc([C@@H](C)NC(=O)c2ccc(=O)n(-c3ccccc3F)n2)s1 [Example 281, N-[(1R)-1-[5-[4-chloro-2-(methylaminomethyl)phenyl]-2-thienyl]ethyl]-1-(2-fluorophenyl)-6-oxo-pyridazine-3-carboxamide]",< 1000 nM
19,"COc1ccc(-n2cc(C(=O)N[C@H](C)c3cc(N)cc(C(F)(F)F)c3)ccc2=O)c(F)c1 [Example 180, N-[(1R)-1-[3-amino-5-(trifluoromethyl)phenyl]ethyl]-1-(2-fluoro-4-methoxy-phenyl)-6-oxo-pyridine-3-carboxamide]",< 1000 nM
20,"Cc1ncccc1-c1cccc(-n2nc(C(=O)N[C@H](C)c3cc(N)cc(C(F)(F)F)c3)ccc2=O)c1 [Example 324, N-[(1R)-1-[3-amino-5-(trifluoromethyl)phenyl]ethyl]-1-[3-(2-methyl-3-pyridyl)phenyl]-6-oxo-pyridazine-3-carboxamide]",< 1000 nM
21,"C[C@@H](NC(=O)c1ccc(=O)n(-c2ccccc2F)n1)c1cc(N)cc(C(F)(F)F)c1F [Example 245, N-[(1R)-1-[5-amino-2-fluoro-3-(trifluoromethyl)phenyl]ethyl]-1-(2-fluorophenyl)-6-oxo-pyridazine-3-carboxamide]",< 1000 nM
22,"CNC(=O)c1cccc(-n2nc(C(=O)N[C@H](C)c3cc(N)cc(C(F)(F)F)c3)ccc2=O)c1F [Example 231, (R)-N-(1-(3-amino-5-(trifluoromethyl)phenyl)ethyl)-1-(2-fluoro-3-(methylcarbamoyl)phenyl)-6-oxo-1,6-dihydropyridazine-3-carboxamide]",< 1000 nM
23,"CNCc1ccc(Cl)cc1-c1ccc([C@@H](C)NC(=O)c2ccc(=O)n(-c3cccnc3NC)n2)s1 [Example 271, N-[(1R)-1-[5-[5-chloro-2-(methylaminomethyl)phenyl]-2-thienyl]ethyl]-1-[2-(methylamino)-3-pyridyl]-6-oxo-pyridazine-3-carboxamide]",< 1000 nM
24,"C[C@@H](NC(=O)c1nn(-c2ccccc2F)c(=O)cc1O)c1cc(N)cc(C(F)(F)F)c1 [Example 363, N-[(1R)-1-[3-amino-5-(trifluoromethyl)phenyl]ethyl]-1-(2-fluorophenyl)-4-hydroxy-6-oxo-pyridazine-3-carboxamide]",> 10000 nM
25,CNCc1ccc(F)cc1-c1ccc([C@@H](C)NC(=O)c2ccc(=O)n(-c3cccc(-c4cnnn4C)c3)n2)s1 [Example 413],< 1000 nM
26,"COCCNC(=O)c1cccc(-n2nc(C(=O)N[C@H](C)c3cc(N)cc(C(F)(F)F)c3)ccc2=O)c1F [Example 232, (R)-N-(1-(3-amino-5-(trifluoromethyl)phenyl)ethyl)-1-(2-fluoro-3-((2-methoxyethyl)carbamoyl)phenyl)-6-oxo-1,6-dihydropyridazine-3-carboxamide]",< 1000 nM

# Reference: patent EP4667458A1 (Kanaph Therapeutics Inc., priority 2023, dated 2024)
